DC50 data for 26 molecules are collected here from patent US20250051347A1, “BIFUNCTIONAL CHIMERIC HETEROCYCLIC COMPOUND AND USE THEREOF AS ANDROGEN RECEPTOR DEGRADER” (Hinova Pharmaceuticals, Inc., priority 2021, published 2025).

For one experiment, the target named is T1, androgen receptor (AR) splicing variant AR-v7 (Homo sapiens, UniProt P10275).
T1 construct: The degradation activity of compounds on AR-v7 in 22RV1 cells; host or cells: 22RV1 cells
T1 sequence (P10275 1-644 isoform P10275-3): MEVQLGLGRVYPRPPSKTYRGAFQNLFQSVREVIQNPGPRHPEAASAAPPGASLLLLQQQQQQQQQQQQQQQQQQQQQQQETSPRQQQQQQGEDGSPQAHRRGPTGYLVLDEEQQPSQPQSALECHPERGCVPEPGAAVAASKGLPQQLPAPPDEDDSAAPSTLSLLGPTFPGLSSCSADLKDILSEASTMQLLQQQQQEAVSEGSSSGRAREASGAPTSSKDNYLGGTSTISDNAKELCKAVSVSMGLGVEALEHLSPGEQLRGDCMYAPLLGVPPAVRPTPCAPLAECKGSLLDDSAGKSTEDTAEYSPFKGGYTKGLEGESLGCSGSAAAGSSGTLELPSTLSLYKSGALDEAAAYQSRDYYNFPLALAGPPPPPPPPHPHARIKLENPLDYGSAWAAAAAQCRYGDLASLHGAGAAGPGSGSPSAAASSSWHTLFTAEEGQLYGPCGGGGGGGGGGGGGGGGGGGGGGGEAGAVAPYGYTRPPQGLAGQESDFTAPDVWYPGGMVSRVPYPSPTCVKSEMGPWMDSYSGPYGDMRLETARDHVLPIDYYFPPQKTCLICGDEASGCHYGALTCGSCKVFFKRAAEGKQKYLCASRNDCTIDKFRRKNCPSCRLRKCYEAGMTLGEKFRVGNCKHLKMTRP
Briefly: Degradation activity on androgen receptor splicing variant AR-v7 in 22RV1 cells (ELISA). It is filed as cell-based. The settings on record: AR-v7 degradation in 22RV1 cells, 48 h, class symbols. On the procedure: The degradation activity of the compound of the present invention on the androgen receptor splicing variant AR-V7 was analyzed using enzyme-linked immunosorbent assay (ELISA).
The plate was cultured in a 5% CO2 cell incubator at 37° C. for 2 days until the cells adhered to the wall. • 2) The drug was prepared into 10 mM stock solution with dimethylsulfoxide (DMSO). […] The plate was gently shaken and mixed. In addition, negative control wells (only containing culture medium) and positive control wells (only containing cells and DMSO) were set. • 3) After the cells were cultured in an incubator for 48 h, the medium was removed and the cells were rinsed once with ice cold PBS. Then, ice-cold 1× cell lysis buffer was added to each well of the cell culture plate. After the plate was incubated on ice for 15 min, the plate was tapped to mix. • 4) The supernatant of the cell lysate was transferred from the cell culture plate to a […] plate for ELISA. • 5) The newly prepared Capture antibody (green) was mixed with the newly prepared HRP-labeled antibody (red), and then the antibody mixture was added to the above 96-well ELISA plate. • 6) The ELISA plate was sealed with plastic film, and then incubated in a 25° C. incubator for 1 h. • 7) The washing buffer was added to each well, and then TMB substrate was added to each well of the ELISA plate. Subsequently, the plate was cultured in an incubator at 37° C. for 5 min. • 8) 100 μl of stop solution was added to each well of the ELISA plate, and the plate was gently tapped for several seconds. The absorbance was read at 450 nm within 30 min. The data were analyzed by the Dose-response equation in the software GraphPad Prism8, to obtain DC50 and Dmax values.
(An ELISA detects its analyte on a solid surface through an enzyme-linked reagent.)
Turning to `CC(C)(c1ccc(Oc2ccc(-n3ccnn3)nc2)cc1)c1ccc(O[C@H]2C[C@@H](Nc3ccc4c(c3)C(=O)N(C3CCC(=O)NC3=O)C4=O)C2)cc1` (some centres unmarked) [Example 541, 5-((1s,3s)-3-(4-(2-(4-((6-(1H-1,2,3-triazol-1-yl)pyridin-3-yl)oxy)phenyl)propan-2-ylphenoxy)cyclobutyl)amino)-2-(2,6-dioxopiperidin-3-yl)isoindolin-1,3-dione], the DC50 was 11 to 100 nM.
In turn, `CC(C)(c1ccc(OCc2ccnc(N3CC4(COC4)C3)n2)cc1)c1ccc(O[C@H]2C[C@@H](Nc3ccc4c(c3)C(=O)N(C3CCC(=O)NC3=O)C4)C2)cc1` (some centres unmarked) [Example 92, 3-(6-(((1s,3s)-3-(4-(2-(4-((2-(2-oxa-6-azaspiro[3.3]heptane-6-yl)pyrimidin-4-yl)methoxy)phenyl)propan-2-yl)phenoxy)cyclobutyl)amino)-1-oxoisoindolin-2-yl)piperidin-2,6-dione] showed a half-maximal degradation concentration (DC50) of 101 to 1000 nM.
In turn, `CC(O)c1ncc(Oc2ccc(C(C)(C)c3ccc(O[C@H]4C[C@@H](Nc5ccc6c(c5)C(=O)N(C5CCC(=O)NC5=O)C6=O)C4)cc3)cc2)cn1` (some centres unmarked) [Example 127] returned a DC50 of 11 to 100 nM.
For the molecule `CC(C)[C@H](COc1ccc(C(C)(C)c2ccc(OCc3ccnc(N4CC5(COC5)C4)n3)cc2)cc1)Nc1ccc2c(c1)C(=O)N(C1CCC(=O)NC1=O)C2=O` (some centres unmarked) [Example 149], the 50% degradation concentration (DC50) lay within 1000 to 5000 nM.
In turn, `CC(C)(c1ccc(OCc2ccnc(N3CC4(COC4)C3)n2)cc1)c1ccc(OC[C@@H]2CCCN2c2ccc3c(c2)C(=O)N(C2CCC(=O)NC2=O)C3=O)cc1` (stereo partly drawn) [Example 313, 5-((S)-2-((4-(2-(4-((2-(2-oxa-6-azaspiro[3.3]heptane-6-yl)pyrimidin-4-yl)methoxy)phenyl)propan-2-yl)phenoxy)methyl)pyrrolidin-1-yl)-2-(2,6-dioxopiperidin-3-yl)isoindolin-1,3-dione] showed a DC50 of 101 to 1000 nM.
Turning to `CN1CCN(c2nccc(COc3ccc(C(C)(C)c4ccc(OCCCNc5cccc6c5C(=O)N(C5CCC(=O)NC5=O)C6=O)cc4)cc3)n2)CC1` (centres unmarked) [Example 60], the DC50 is 101 to 1000 nM.
Consider `Cc1nnc(-c2ccc(Oc3ccc(C(C)(C)c4ccc(O[C@H]5C[C@@H](Nc6ccc7c(=O)n(C8CCC(=O)NC8=O)cnc7c6)C5)cc4)cc3)cn2)o1` (some centres unmarked) [Example 120], for which the DC50 fell in the range of 11 to 100 nM.
`CCN1CC(Oc2nccc(COc3ccc(C(C)(C)c4ccc(O[C@H]5C[C@@H](Nc6ccc7c(c6)C(=O)N(C6CCC(=O)NC6=O)C7=O)C5)cc4)cc3)n2)C1` (some centres unmarked) [Example 466] had a DC50 of 11 to 100 nM.
Same read-out and setting: in the case of `Cc1cnc(N2CC3(COC3)C2)nc1COc1ccc(C(C)(C)c2ccc(O[C@H]3C[C@@H](Nc4ccc5c(c4)C(=O)N(C4CCC(=O)NC4=O)C5=O)C3)cc2)cc1` (some centres unmarked) [Example 203] it was 11 to 100 nM.
Still for that read-out and setting: next, `CC(c1ccc(C(C)(C)c2ccc(OCc3ccnc(N4CC5(COC5)C4)n3)cc2)cc1)N1CC(Nc2ccc3c(c2)C(=O)N(C2CCC(=O)NC2=O)C3=O)C1` (centres unmarked) [Example 505, 5-((1-(1-(4-(2-(4-(4-) 4-((2-(2-oxa-6-azaspiro[3.3]heptane-6-yl)pyrimidin-4-yl)methoxy)phenyl)propan-2-yl)phenyl)ethyl)azetidin-3-yl)amino)-2-(2,6-dioxopiperidin-3-yl)isoindolin-1,3-dione]: 1000 to 5000 nM; `CC(C)(c1ccc(OCc2ccnc(-c3ncno3)n2)cc1)c1ccc(O[C@H]2C[C@@H](Nc3ccc4c(c3)C(=O)N(C3CCC(=O)NC3=O)C4=O)C2)cc1` (some centres unmarked) [Example 252]: 1000 to 5000 nM.
For the molecule `CC1(CNc2nccc(COc3ccc(C(C)(C)c4ccc(O[C@H]5C[C@@H](Nc6ccc7c(c6)C(=O)N(C6CCC(=O)NC6=O)C7=O)C5)cc4)cc3)n2)CNC1` (some centres unmarked) [Example 457], the 50% degradation concentration (DC50) lay in the range of 11 to 100 nM.
`Cc1nc(-c2cccc(Oc3ccc(C(C)(C)c4ccc(O[C@H]5C[C@@H](Nc6ccc7c(c6)C(=O)N(C6CCC(=O)NC6=O)C7=O)C5)cc4)cc3)n2)no1` (some centres unmarked) [Example 422]: the DC50 was 11 to 100 nM.
On to `CC(C)(c1ccc(OCc2ccnc(N3CC4(COC4)C3)n2)cc1)c1ccc(O[C@H]2CC[C@@H](Nc3ccc4c(c3)C(=O)N(C3CCC(=O)NC3=O)C4=O)CC2)cc1` (some centres unmarked) [Example 153, 5-(((1s,4s)-4-(4-(2-(4-((2-(2-oxa-6-azaspiro[3.3]heptan-6-yl)pyrimidin-4-yl)methoxy)phenyl)propan-2-yl)phenoxy)cyclohexyl)amino)-2-(2,6-dioxopyridin-3-yl)isoindolin-1,3-dione], for which the DC50 was 101 to 1000 nM.
Take `CC(C)(c1ccc(OCc2ccnc(N3CCOCC3)n2)cc1)c1ccc(OC2CC(Nc3ccc4c(c3)C(=O)N(C3CCC(=O)NC3=O)C4=O)C2)cc1` (centres unmarked) [Example 394]: the DC50 was in the range of 11 to 100 nM.
Still for that read-out and setting: next, `CN1CC[C@@H](Oc2nccc(COc3ccc(C(C)(C)c4ccc(O[C@H]5C[C@@H](Nc6ccc7c(c6)C(=O)N(C6CCC(=O)NC6=O)C7=O)C5)cc4)cc3)n2)C1` (some centres unmarked) [Example 243]: under 10 nM; `CNC(=O)c1noc(COc2ccc(C(C)(C)c3ccc(OCCCNc4ccc5c(c4)C(=O)N(C4CCC(=O)NC4=O)C5=O)cc3)cc2)n1` (centres unmarked) [Example 137, 5-((4-(2-(4-(3-((2-(2,6-dioxopiperidin-3-yl)-1,3-dioxoisoindolin-5-yl)amino)propoxy)phenyl)propan-2-yl)phenoxy)methyl)-N-methyl-1,2,4-oxadiazol-3-carbonylaminomethane]: 11 to 100 nM; `C[C@@H]1CN(c2nccc(COc3ccc(C(C)(C)c4ccc(O[C@H]5C[C@@H](Nc6ccc7c(c6)C(=O)N(C6CCC(=O)NC6=O)C7=O)C5)cc4)cc3)n2)[C@H](C)CN1` (some centres unmarked) [Example 408]: 11 to 100 nM.
For `CC(C)(c1ccc(OCc2cccc(C(=O)C3CC3)n2)cc1)c1ccc(O[C@H]2C[C@H](Nc3ccc4c(c3)C(=O)N(C3CCC(=O)NC3=O)C4=O)C2)cc1` (stereo partly drawn) [Example 117, 5-(((trans)-3-(4-(2-(4-((6-(cyclopropanecarbonyl)pyridin-2-yl)methoxy)phenyl)propan-2-yl)phenoxy)cyclobutyl)amino)-2-(2,6-dioxopiperidin-3-yl)isoindolin-1,3-dione], the DC50 is 11 to 100 nM.
Regarding `Cc1noc(-c2cccc(COc3ccc(C(C)(C)c4ccc(O[C@H]5C[C@@H](Nc6ccc7c(c6)C(=O)N(C6CCC(=O)NC6=O)C7=O)C5)cc4)cc3)n2)n1` (some centres unmarked) [Example 472], the DC50 fell in the range of 11 to 100 nM.
`Cc1nc(-c2ccnc(Oc3ccc(C(C)(C)c4ccc(O[C@H]5C[C@H](Nc6ccc7c(c6)C(=O)N(C6CCC(=O)NC6=O)C7=O)C5)cc4)cc3)c2)no1` (some centres unmarked) [Example 474]: the DC50 lay in the range of 11 to 100 nM.

Staying with this experiment, now noted: AR-v7 degradation in 22RV1 cells, 48 h, numeric values.
`CC(C)(c1ccc(OCCCOCCCOCCCNc2cccc3c2C(=O)N(C2CCC(=O)NC2=O)C3=O)cc1)c1ccc(OCc2ccnc(NS(C)(=O)=O)n2)cc1` (centres unmarked) [Example 19, N-(4-((4-(2-(4-(3-(3-(3-((2-(2,6-dioxopiperidin-3-yl)-1,3-dioxoisoindolin-4-yl)amino)propoxy)propoxy)propoxy)phenyl)propan-2-yl)phenoxy)methyl)pyrimidin-2-yl)methanesulfonamide] had a 50% degradation concentration (DC50) of 6860 nM.
`CC(=O)c1nccc(COc2ccc(C(C)(C)c3ccc(OC4CCN(c5ccc6c(c5)C(=O)N(C5CCC(=O)NC5=O)C6=O)CC4)cc3)cc2)n1` (centres unmarked) [Example 557] registered a DC50 of over 10000 nM.
Same read-out and setting: next, `CC(C)(c1ccc(OCCCOCCCN2CCC3(CC2)CN(c2ccc4c(c2)C(=O)N(C2CCC(=O)NC2=O)C4=O)C3)cc1)c1ccc(OCc2ccnc(NS(C)(=O)=O)n2)cc1` (centres unmarked) [Example 4]: over 10000 nM; `CC(=O)c1nccc(COc2ccc(C(C)(C)c3ccc(OCCCCCNc4ccc5c(c4)C(=O)N(C4CCC(=O)NC4=O)C5=O)cc3)cc2)n1` (centres unmarked) [Example 342, 5-((5-(4-(2-(4-((2-acetylpyrimidin-4-yl)methoxy)phenyl)isopropan-2-yl)phenoxy)pentyl)amino)-2-(2,6-dioxopiperidin-3-yl)isoindolin-1,3-dione]: over 10000 nM; `CC(C)(c1ccc(OCCCCCCCOCCCOCCCNc2ccc3c(c2)C(=O)N(C2CCC(=O)NC2=O)C3=O)cc1)c1ccc(OCc2ccnc(NS(C)(=O)=O)n2)cc1` (centres unmarked) [Example 24]: over 10000 nM.

One may read the DC50 as the concentration giving 50% degradation. Lower therefore signals degradation at low concentration.
